From ChEMBL document CHEMBL1201862, “PubChem BioAssay data set” (2004) come the findings set out here.

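Assay format: 96-well plates, 48-hour exposure. GI50 is the concentration that inhibits growth by half.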 The source made the active and inactive calls. Rule as the data show it: active = GI50 up to about 1.1 µM and inactive = higher.

Some test systems named below: 786-0; HCT-116; HOP-62; HOP-92; M14; NCI/ADR-RES; OVCAR-3; OVCAR-5; RXF 393; SF-268; SF-295; SK-OV-3; SNB-19; T47D; U-251; K562.
Common to all, as to assay: NCI tumour cell line growth inhibition, 48 h

For the compound `CCCC1c2c(ccc3ccccc23)Oc2ccc3ccccc3c21`, the GI50 is > 100 µM (inactive) in the assay with 786-0; 20.7 µM (inactive) with HCT-116; > 100 µM (inactive) with HOP-62; > 100 µM (inactive) in the assay on HOP-92; 74 µM (inactive) with M14; 94 µM (inactive) with NCI/ADR-RES. Moreover, the GI50 in the assay on OVCAR-3 was 61.4 µM (inactive); with OVCAR-5, 54.1 µM (inactive); in the assay with RXF 393 it was 29.1 µM (inactive); in the assay on SF-268 it was 79.8 µM (inactive); in the assay on SF-295 it was 28.1 µM (inactive); in the assay with SK-OV-3, > 100 µM (inactive). The results for the GI50 in the assay with SNB-19, in the assay on T47D and in the assay on U-251 were > 100 µM (inactive), 14.6 µM (inactive) and 40.2 µM (inactive), respectively.
Consider `OCc1c2c(cc3c1CC1(C3)Cc3cc4c(c(CO)c3C1)CCC4)CCC2`, for which the GI50 is 14.2 µM (inactive) in the assay on 786-0; 13.6 µM (inactive) with HCT-116; 15.6 µM (inactive) in the assay on HOP-62; 18.5 µM (inactive) with HOP-92; 7.35 µM (inactive) with K562; 18 µM (inactive) in the assay on M14. The GI50 is 15.1 µM (inactive) in the assay on NCI/ADR-RES; 14.4 µM (inactive) in the assay on OVCAR-3; 19.8 µM (inactive) in the assay with OVCAR-5; 16.6 µM (inactive) in the assay with RXF 393; 12.4 µM (inactive) with SF-295; 17.5 µM (inactive) with SK-OV-3. The results for the GI50 in the assay on T47D and in the assay with U-251 were 12.7 µM (inactive) and 15.8 µM (inactive), respectively.
As to `O=C(NCC(O)COc1ccccc1)c1ccccc1O` (centres undefined), the GI50 in the assay on 786-0 was > 100 µM (inactive); in the assay with HCT-116, > 100 µM (inactive); with HOP-62, > 100 µM (inactive); in the assay with HOP-92, 86.1 µM (inactive); in the assay on K562, > 100 µM (inactive); in the assay with M14 it was > 100 µM (inactive). Also, the GI50 with NCI/ADR-RES was 58.6 µM (inactive); with OVCAR-3, > 100 µM (inactive); in the assay on OVCAR-5, > 100 µM (inactive); in the assay on RXF 393, > 100 µM (inactive); with SF-295, > 100 µM (inactive); in the assay with SK-OV-3 it was > 100 µM (inactive). Also, the GI50 with SNB-19 is 91 µM (inactive); in the assay with T47D it was 42.4 µM (inactive); with U-251, > 100 µM (inactive).
With `O=[N+]([O-])C1CC/C(=N/O)c2nonc21` (centres undefined), the GI50 in the assay with 786-0, in the assay on HCT-116, with HOP-62, with HOP-92, in the assay on K562 and in the assay with M14 was > 10 µM (inactive) each time. Moreover, the GI50 with NCI/ADR-RES, in the assay on OVCAR-3, in the assay on OVCAR-5, in the assay with RXF 393, in the assay on SF-268 and with SF-295 was > 10 µM (inactive) throughout. Moreover, the GI50 in the assay with SNB-19, in the assay on T47D and in the assay with U-251 was > 10 µM (inactive) in each case.
On to `CCOC(=O)C1CCC(=O)N1C(=O)c1ccc(Cl)cc1` (centres undefined), for which the GI50 in the assay with 786-0, in the assay on HCT-116, with HOP-62, in the assay on HOP-92, in the assay on K562 and in the assay on M14 was > 100 µM (inactive) each time. The GI50 with NCI/ADR-RES, in the assay on OVCAR-3, with OVCAR-5, in the assay on RXF 393, in the assay on SF-268 and in the assay with SF-295 was > 100 µM (inactive) throughout. For the same compound, the GI50 in the assay on SNB-19, in the assay on T47D and in the assay with U-251 was > 100 µM (inactive) throughout.
Take `N#Cc1cc(Sc2ccc(N)c(C#N)c2)ccc1N`: the GI50 in the assay on 786-0 is 17.6 µM (inactive); in the assay on HCT-116, 12.1 µM (inactive); in the assay on HOP-62, 41.9 µM (inactive); with HOP-92 it was 21.7 µM (inactive); with K562, 3.44 µM (inactive); in the assay on M14, 11.9 µM (inactive). Besides, the GI50 in the assay with NCI/ADR-RES is 13.3 µM (inactive); with OVCAR-3, 34.7 µM (inactive); in the assay on OVCAR-5 it was 29.3 µM (inactive); with RXF 393, 29.4 µM (inactive); in the assay on SF-268, 18 µM (inactive); in the assay on SF-295 it was 17.6 µM (inactive). Moreover, the GI50 in the assay with SK-OV-3 is 23.1 µM (inactive); with SNB-19, 14.8 µM (inactive); with T47D, 29 µM (inactive); with U-251 it was 29.3 µM (inactive).
As for `Cc1ccc(NC(=S)C#N)cc1Cl`, the GI50 was 45.2 µM (inactive) in the assay on 786-0; 36.6 µM (inactive) with HCT-116; 49.1 µM (inactive) in the assay on HOP-62; 13.4 µM (inactive) with HOP-92; 39.3 µM (inactive) in the assay on K562; 36.9 µM (inactive) in the assay on M14. Besides, the GI50 was 31 µM (inactive) in the assay with NCI/ADR-RES; 21.5 µM (inactive) in the assay with OVCAR-3; 24.8 µM (inactive) in the assay on OVCAR-5; 29.4 µM (inactive) in the assay on RXF 393; 36.9 µM (inactive) in the assay on SF-268; 26.4 µM (inactive) in the assay on SF-295. Besides, the values for the GI50 with SK-OV-3, in the assay on T47D and with U-251 were 26.5 µM (inactive), 32.4 µM (inactive) and 55.8 µM (inactive), respectively.
Consider `CC(=O)c1ccc(N2CCN(C3=CC(=O)c4c(O)ccc(O)c4C3=O)CC2)cc1`, for which the GI50 in the assay with 786-0 was > 100 µM (inactive); in the assay on HCT-116 it was 7.57 µM (inactive); in the assay with HOP-62, 29.9 µM (inactive); in the assay with HOP-92, 25.8 µM (inactive); in the assay on K562, 37.5 µM (inactive); in the assay with M14 it was 40.7 µM (inactive). Besides, the GI50 in the assay on NCI/ADR-RES was 3.44 µM (inactive); in the assay on OVCAR-3, 39.9 µM (inactive); with OVCAR-5, > 100 µM (inactive); in the assay on RXF 393 it was 47.8 µM (inactive); with SF-268, 33 µM (inactive); in the assay with SF-295 it was 35 µM (inactive). The GI50 is 62.4 µM (inactive) in the assay with SNB-19, > 100 µM (inactive) with T47D and 16.2 µM (inactive) with U-251.
Turning to `CC(NCc1c(O)ccc2c(-c3ccccc3)cc(=O)oc12)C(=O)O` (centres undefined), the GI50 was > 100 µM (inactive) in the assay on 786-0; > 100 µM (inactive) in the assay on HCT-116; > 100 µM (inactive) with HOP-62; 86.1 µM (inactive) in the assay with HOP-92; > 100 µM (inactive) in the assay on K562; > 100 µM (inactive) in the assay with M14. Besides, the GI50 in the assay on NCI/ADR-RES, in the assay on OVCAR-3, in the assay with OVCAR-5, with RXF 393, in the assay on SF-268 and with SF-295 was > 100 µM (inactive) each time. Also, the GI50 with SK-OV-3, in the assay with SNB-19, in the assay on T47D and with U-251 was > 100 µM (inactive) each time.
With `CO[C@H]1O[C@@H]2OC3(C)CCC4[C@H](C)CCC([C@H]1C)[C@]42OO3` (some centres undefined), the GI50 was > 100 µM (inactive) in the assay with 786-0; > 100 µM (inactive) with HCT-116; > 100 µM (inactive) with HOP-62; > 100 µM (inactive) in the assay with HOP-92; 26.5 µM (inactive) with K562; > 100 µM (inactive) in the assay with M14. The GI50 in the assay with NCI/ADR-RES is 44.2 µM (inactive); in the assay with OVCAR-3 it was 78.9 µM (inactive); in the assay with OVCAR-5, > 100 µM (inactive); with RXF 393 it was > 100 µM (inactive); in the assay on SF-268, > 100 µM (inactive); with SF-295, > 100 µM (inactive). For the same compound, the GI50 was > 100 µM (inactive) in the assay on SK-OV-3, > 100 µM (inactive) in the assay with SNB-19, 91.6 µM (inactive) in the assay on T47D and > 100 µM (inactive) in the assay on U-251.
For `CNc1ncnc2c1nc(NC1CCCC1)n2C1OC(CO)C(O)C1O` (centres undefined), the GI50 in the assay on 786-0, in the assay with HCT-116, in the assay with HOP-62, in the assay on HOP-92, in the assay with M14 and in the assay with NCI/ADR-RES was > 100 µM (inactive) each time. In addition, the GI50 with OVCAR-3, in the assay with OVCAR-5, in the assay with RXF 393, with SF-268, in the assay on SF-295 and with SK-OV-3 was > 100 µM (inactive) in each case. Besides, the GI50 in the assay with SNB-19, in the assay on T47D and in the assay on U-251 was > 100 µM (inactive) each time.
`CC(O)c1cc2c(s1)C(=O)c1scc(C(C)O)c1C2=O` (centres undefined): the GI50 is 2.07 µM (inactive) in the assay with 786-0; 0.659 µM (active) with HCT-116; 0.973 µM (active) in the assay on HOP-62; 1.96 µM (inactive) with HOP-92; 0.597 µM (active) in the assay on K562; 0.19 µM (active) in the assay on M14. The GI50 is 0.283 µM (active) in the assay on NCI/ADR-RES; 0.393 µM (active) in the assay with OVCAR-3; 1.37 µM (inactive) in the assay on OVCAR-5; 0.881 µM (active) in the assay with RXF 393; 0.28 µM (active) in the assay with SF-268; 0.168 µM (active) in the assay with SF-295. For the same compound, the GI50 with SK-OV-3 is 2.64 µM (inactive); in the assay on SNB-19 it was 0.667 µM (active); in the assay on T47D it was 1.95 µM (inactive); in the assay on U-251, 0.419 µM (active).
On to `O=C(Nc1ccn(C2CCC(COC(c3ccccc3)(c3ccccc3)c3ccccc3)O2)c(=O)n1)c1ccccc1` (centres undefined), for which the GI50 in the assay with 786-0 was 2.64 µM (inactive); in the assay with HCT-116, 3.33 µM (inactive); in the assay on HOP-62 it was 10.7 µM (inactive); in the assay with HOP-92 it was 1.86 µM (inactive); in the assay on K562, 2.86 µM (inactive); in the assay on M14, 3.48 µM (inactive). The GI50 was 2.72 µM (inactive) with NCI/ADR-RES; 2.4 µM (inactive) in the assay with OVCAR-3; 3.76 µM (inactive) in the assay on OVCAR-5; 2.9 µM (inactive) with RXF 393; 7.64 µM (inactive) in the assay on SF-268; 3.11 µM (inactive) in the assay on SF-295. In addition, the GI50 was 9.44 µM (inactive) in the assay with SK-OV-3, 5.66 µM (inactive) in the assay with SNB-19, 7.46 µM (inactive) with T47D and 4.06 µM (inactive) in the assay on U-251.
